Experimental data reported in US9676780B2, “Piperazine-substituted [1,2,4]triazolo[1,5-C]quinazolin-5-amine compounds with A2A antagonist properties” (MERCK SHARP & DOHME CORP., priority 2012, dated 2017).

What follows are compounds tested against T1, human A2a receptor (Homo sapiens, UniProt P29274) (assay: A2a receptor competition binding assay (Scintillation Proximity, tritiated radioligand)). Settings: membranes from HEK293 cells expressing the human A2a receptor; 0.5 nM tritiated ligand; SPA beads; one hour at room temperature; read-out: A2a EC50.
T1 construct: purchased Perkin-Elmer RBHA2AM400UA; host or cells: HEK293
Procedure: Binding affinities of compounds of the invention for the human A2a receptor were determined in a competition binding assay using Scintillation Proximity technology. […] The beads were then allowed to settle to the bottom of the wells for 1 hr, after which the membrane-associated radioactivity was determined by scintillation counting in a TopCount microplate reader. Ki values were determined using the Cheng-Prusoff equation.
• HEK293 cells expressing the human, rat, dog or monkey adenosine 2a receptor (Purchased from Perkin-Elmer # RBHA2AM400UA). • The Tritiated compound was prepared in-house by MRL Radiochemistry according to published methods. • Wheatgerm agglutinin-coated yttrium silicate SPA beads (GE Healthcare #RPNQ0023). […] This is a 2.5× solution. The final concentration in the assay is 0.5 nM. Calculate the concentration by counting two 5 ul aliquots. Membrane Preparation • Use 0.25 ug of membrane/well. Dilute membranes to 9.7 ug/ml in assay buffer. Treat with 20 ug/ml adenosine deaminase (ADA) for 15 minutes at room temperature to degrade endogenous adenosine. Membrane-Bead Mixture • Use 100 ug/well wheatgerm agglutinin-coated yttrium silicate SPA beads. • Mix ADA-treated membranes and SPA beads together for 30 min prior to assay. […] Incubate for one hour at room temperature with agitation. • Include total binding (assay buffer+1% DMSO) and non-specific binding (CGS15943, 1 uM) wells. Counting • Allow the beads to settle for one hour. • Count in TopCount. Calculations • A curve fitting program (i.e., Prism, Activity Base, Chemcart) is used to determine the EC50.
The Ki value is calculated using the Cheng-Prusoff equation. Ki=EC50/(1+(radioligand concentration/Kd))

T1 sequence (P29274 whole entry): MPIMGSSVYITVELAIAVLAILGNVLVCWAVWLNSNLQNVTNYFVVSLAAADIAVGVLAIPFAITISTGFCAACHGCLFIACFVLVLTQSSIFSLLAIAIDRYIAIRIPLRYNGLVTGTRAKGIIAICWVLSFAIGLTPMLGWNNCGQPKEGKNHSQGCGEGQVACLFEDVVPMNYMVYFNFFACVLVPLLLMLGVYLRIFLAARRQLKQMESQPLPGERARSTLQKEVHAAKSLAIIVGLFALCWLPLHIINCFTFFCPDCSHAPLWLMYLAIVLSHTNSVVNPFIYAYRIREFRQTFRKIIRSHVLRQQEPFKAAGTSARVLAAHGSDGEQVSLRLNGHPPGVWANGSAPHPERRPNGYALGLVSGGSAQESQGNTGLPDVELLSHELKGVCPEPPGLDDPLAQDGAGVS

Structure (SMILES) | EC50
COc1cccc2c1nc(N)n1nc(CN3CCN(c4nsnc4OCCO)CC3C)nc21 (stereo not shown) [Ex-109] | 4.66 nM
COc1cccc2c1nc(N)n1nc(CN3CCN(c4cnccn4)CC3C)nc21 (stereo not shown) [Ex-113] | 27.3 nM
COc1cccc2c1nc(N)n1nc(CN3CCN(c4cc(C#N)ccn4)CC3C)nc21 (stereo not shown) [Ex-114] | 12.3 nM
COc1cncc(N2CCN(Cc3nc4c5cccc(OC)c5nc(N)n4n3)C(C)C2)c1OC (stereo not shown) [Ex-116] | 3.03 nM
COc1cccc2c1nc(N)n1nc(CN3CCN(c4ccc(C(F)(F)F)c(C(F)(F)F)c4)CC3C)nc21 (stereo not shown) [Ex-117] | 12.7 nM
COc1cccc2c1nc(N)n1nc(CN3CCN(c4cc(C(F)(F)F)cc(C(F)(F)F)c4)CC3C)nc21 (stereo not shown) [Ex-120] | 20.7 nM
COc1ccc(Cl)c(N2CCN(Cc3nc4c5cccc(OC)c5nc(N)n4n3)C(C)C2)c1 (stereo not shown) [Ex-121] | 13.2 nM
COc1cccc2c1nc(N)n1nc(CN3CCN(c4ncc(F)cc4F)CC3C)nc21 (stereo not shown) [Ex-122] | 4.86 nM
COc1cccc2c1nc(N)n1nc(CN3CCN(c4cc(C(F)F)ccn4)CC3C)nc21 (stereo not shown) [Ex-123] | 4.25 nM
COc1cccc2c1nc(N)n1nc(CN3CCN(c4c(C)nn(C)c4C)CC3C)nc21 (stereo not shown) [Ex-129] | 11.6 nM
COc1cccc2c1nc(N)n1nc(CN3CCN(c4nccnc4C)CC3C)nc21 (stereo not shown) [Ex-135] | 10.7 nM
COc1cccc2c1nc(N)n1nc(CN3CCN(c4ccc(F)c(C)n4)CC3C)nc21 (stereo not shown) [Ex-136] | 11.4 nM
COc1cccc2c1nc(N)n1nc(CN3CCN(c4cc(C(F)(F)F)c(C(F)(F)F)cn4)CC3C)nc21 (stereo not shown) [Ex-139] | 81.8 nM
COc1cccc2c1nc(N)n1nc(CN3CCN(c4cnn(CC(C)(C)C)c4)CC3C)nc21 (stereo not shown) [Ex-140] | 4.93 nM
COCc1c2cc(N3CCN(Cc4nc5c6cccc(OC)c6nc(N)n5n4)C(C)C3)ccc2nn1C (stereo not shown) [Ex-141] | 2.34 nM
COc1ccnc(N2CCN(Cc3nc4c5cccc(OC)c5nc(N)n4n3)C(C)C2)c1 (stereo not shown) [Ex-142] | 16.5 nM
COc1cccc2c1nc(N)n1nc(C(=O)N3CCN(CC(F)(F)F)CC3C)nc21 (stereo not shown) [Ex-147] | 6.6 nM
COc1cccc2c1nc(N)n1nc(CN3CCN(c4ncccc4C(F)(F)F)CC3C)nc21 (stereo not shown) [Ex-148] | 18 nM
COc1cccc2c1nc(N)n1nc(CN3CCN(c4cc(F)cc(C(=O)O)c4)CC3C)nc21 (stereo not shown) [Ex-149] | 13.4 nM
COc1cccc2c1nc(N)n1nc(CN3C(C)CN(c4ccc(F)cn4)CC3C)nc21 (stereo not shown) [Ex-150] | 15 nM

Structure (SMILES) | EC50
COc1cccc2c1nc(N)n1nc(CC(=O)N3CCN(c4ccccn4)CC3)nc21 [Ex-153] | 7.3 nM
COc1cccc2c1nc(N)n1nc(CCCN3CCN(c4ccccn4)CC3)nc21 [Ex-158] | 7.1 nM
Cc1noc2cc(F)c(N3CCN(Cc4nc5c6ccccc6nc(N)n5n4)CC3)cc12 [Ex-160] | 343 nM
COCCOc1ccc(N2CCN(Cc3nc4c5ccccc5nc(N)n4n3)CC2)cc1 [Ex-161] | 525 nM
COCCOc1ccc(N2CCN(Cc3nc4c5cc(F)cc(F)c5nc(N)n4n3)CC2)cc1 [Ex-162] | 74.2 nM
COc1cccc2c1nc(N)n1nc(CCN3CCN(c4ncc(F)cn4)CC3)nc21 [Ex-163] | 7.8 nM
COc1cccc2c1nc(N)n1nc(CCN3CCN(c4ccc(F)cn4)CC3)nc21 [Ex-164] | 2.5 nM
COc1cccc2c1nc(N)n1nc(CCN3CCN(c4ccccn4)CC3)nc21 [Ex-165] | 3.3 nM
COc1cccc2c1nc(N)n1nc(CCN3CCN(c4ccccc4)CC3)nc21 [Ex-166] | 13.5 nM
COc1cccc2c1nc(N)n1nc(CCN3CCN(c4ccc(F)cn4)C[C@H]3C)nc21 [Ex-169] | 2.6 nM
COc1cccc2c1nc(N)n1nc(CN3CCN(c4ccccn4)CC3)nc21 [Ex-170] | 157 nM
COc1cccc2c1nc(N)n1nc(CN3CCN(C(=O)OC(C)(C)C)CC3C(F)(F)F)nc21 (stereo not shown) [Ex-171] | 30.4 nM
COc1cccc2c1nc(N)n1nc(CN3CCN(c4ccc(C(F)(F)F)cn4)C[C@H]3C)nc21 [Ex-173] | 22.6 nM
COc1ccc(N2CCN(Cc3nc4c5cccc(OC)c5nc(N)n4n3)CC2(C)C)cc1 [Ex-180] | 1.1 nM
COc1cccc2c1nc(N)n1nc(CN3CCN(c4ccc(F)cc4)[C@@H](C)C3)nc21 [Ex-181] | 19.9 nM
COc1cccc2c1nc(N)n1nc(CN3CCN(c4ccc(F)cn4)[C@@H](C)C3)nc21 [Ex-182] | 10.2 nM
COc1cccc2c1nc(N)n1nc(CN3CCN(c4ccc(F)cc4)CC3(C)C)nc21 [Ex-183] | 5 nM
COc1ccc(N2CCN(Cc3nc4c5cc(F)cc(OC)c5nc(N)n4n3)CC2(C)C)cc1 [Ex-184] | 16.4 nM
COc1cccc(N2CCN(Cc3nc4c5cc(F)cc(OC)c5nc(N)n4n3)CC2(C)C)c1 [Ex-186] | 3.5 nM

Further lines, results first:

EC50 | Structure (SMILES)
4.95 nM | COc1cccc2c1nc(N)n1nc(CN3CCN(c4cc(F)cc(Cl)c4)CC3C)nc21 (stereo not shown) [Ex-101]
2.14 nM | COc1cccc2c1nc(N)n1nc(CN3CCN(c4ccc(F)c(Cl)c4)CC3C)nc21 (stereo not shown) [Ex-102]
5.56 nM | COc1cc(Cl)cc(N2CCN(Cc3nc4c5cccc(OC)c5nc(N)n4n3)C(C)C2)c1 (stereo not shown) [Ex-103]
23.1 nM | COc1cccc2c1nc(N)n1nc(CN3CCN(c4ccncc4F)CC3C)nc21 (stereo not shown) [Ex-104]
16.8 nM | COc1cc(N2CCN(Cc3nc4c5cccc(OC)c5nc(N)n4n3)C(C)C2)ccn1 (stereo not shown) [Ex-105]
4.73 nM | COc1cccc2c1nc(N)n1nc(CN3CCN(c4cc(F)cc(F)c4)CC3C)nc21 (stereo not shown) [Ex-106]
6.98 nM | COc1cccc2c1nc(N)n1nc(CN3CCN(c4cc(F)ccn4)CC3C)nc21 (stereo not shown) [Ex-107]
1.1 nM | COc1cccc2c1nc(N)n1nc(CN3CCN(c4ccc5nc(C6CC6)oc5c4)CC3C)nc21 (stereo not shown) [Ex-110]
1.6 nM | COc1cccc2c1nc(N)n1nc(CN3CCN(c4cccc5c4cnn5C)CC3C)nc21 (stereo not shown) [Ex-112]
1.39 nM | COc1cc(N2CCN(Cc3nc4c5cccc(OC)c5nc(N)n4n3)C(C)C2)ccc1F (stereo not shown) [Ex-115]
1.25 nM | COc1ccc(N2CCN(Cc3nc4c5cccc(OC)c5nc(N)n4n3)C(C)C2)cc1C(F)(F)F (stereo not shown) [Ex-118]
1.97 nM | COc1cccc2c1nc(N)n1nc(CN3CCN(c4ccc(N5CCOCC5)cc4)CC3C)nc21 (stereo not shown) [Ex-119]
2.82 nM | COc1cccc2c1nc(N)n1nc(CN3CCN(c4cc(Cl)cc(Cl)c4)CC3C)nc21 (stereo not shown) [Ex-124]
1.03 nM | COc1cc(N2CCN(Cc3nc4c5cccc(OC)c5nc(N)n4n3)C(C)C2)ccc1Cl (stereo not shown) [Ex-125]
2.39 nM | COc1cccc2c1nc(N)n1nc(CN3CCN(c4cccc(N(C)C)c4)CC3C)nc21 (stereo not shown) [Ex-126]
3.08 nM | COc1cccc2c1nc(N)n1nc(CN3CCN(c4ccc(Cl)c(Cl)c4)CC3C)nc21 (stereo not shown) [Ex-127]
0.964 nM | COc1cccc2c1nc(N)n1nc(CN3CCN(c4ccc5c(c4)c(C)nn5C)CC3C)nc21 (stereo not shown) [Ex-128]
0.898 nM | COc1cccc2c1nc(N)n1nc(CN3CCN(c4ccc5c(cnn5C)c4)CC3C)nc21 (stereo not shown) [Ex-130]
0.698 nM | COc1cccc2c1nc(N)n1nc(CN3CCN(c4ccc5nn(C)cc5c4)CC3C)nc21 (stereo not shown) [Ex-131]

EC50 | Structure (SMILES)
2.04 nM | COc1cccc2c1nc(N)n1nc(CN3CCN(c4cccc5nn(C)cc45)CC3C)nc21 (stereo not shown) [Ex-132]
1.68 nM | COc1cc(OC)cc(N2CCN(Cc3nc4c5cccc(OC)c5nc(N)n4n3)C(C)C2)c1 (stereo not shown) [Ex-133]
4.57 nM | COc1cccc2c1nc(N)n1nc(CN3CCN(c4ccc(Cl)cn4)CC3C)nc21 (stereo not shown) [Ex-134]
20.6 nM | COc1cccc2c1nc(N)n1nc(CN3CCN(c4ccc(C#N)cn4)CC3C)nc21 (stereo not shown) [Ex-137]
14.3 nM | COc1cccc2c1nc(N)n1nc(CN3CCN(c4ccc(C)cn4)CC3C)nc21 (stereo not shown) [Ex-138]
13.9 nM | COc1cccc2c1nc(N)n1nc(CN3CCN(c4cccc(S(C)(=O)=O)c4)CC3C)nc21 (stereo not shown) [Ex-143]
20.1 nM | COc1cccc2c1nc(N)n1nc(CN3CCN(c4cnccc4C)CC3C)nc21 (stereo not shown) [Ex-144]
6.35 nM | COc1cncc(N2CCN(Cc3nc4c5cccc(OC)c5nc(N)n4n3)C(C)C2)c1 (stereo not shown) [Ex-146]
2.22 nM | COc1cccc2c1nc(N)n1nc(CN3CCN(c4ccc(OCC(F)F)cc4)CC3C)nc21 (stereo not shown) [Ex-151]
2.2 nM | COc1cccc2c1nc(N)n1nc(CN3CCN(c4ccc(OCC5CC5)cc4)CC3C)nc21 (stereo not shown) [Ex-152]
2.6 nM | COc1cccc2c1nc(N)n1nc(CC(=O)N3CCN(c4ccc(F)cc4)C[C@H]3C)nc21 [Ex-154]
136 nM | C[C@@H]1CN(c2ccc(F)cc2)CCN1Cc1nc2c3cccc(C(F)(F)F)c3nc(N)n2n1 [Ex-155]
740 nM | C[C@@H]1CN(c2ccc(F)cc2)CCN1Cc1nc2c3cccc(C#N)c3nc(N)n2n1 [Ex-156]
14.4 nM | C[C@@H]1CN(c2ccc(F)cc2)CCN1Cc1nc2c3cccc(Br)c3nc(N)n2n1 [Ex-157]
4.1 nM | COc1cccc2c1nc(N)n1nc(CCN3CCN(c4ccc(F)cc4)C[C@H]3C)nc21 [Ex-168]
5.6 nM | COc1cccc2c1nc(N)n1nc(CN3CCN(c4ccc(F)cc4)CC3C(F)F)nc21 (stereo not shown) [Ex-175]
8.9 nM | COc1cccc2c1nc(N)n1nc(CN3CCN(c4ccc(F)cc4)CC3CF)nc21 (stereo not shown) [Ex-176]
12.7 nM | COc1cccc2c1nc(N)n1nc(CN3CCN(c4ccc(F)cc4)CC3C(F)(F)F)nc21 (stereo not shown) [Ex-177]
